Like-named read-outs stand apart in the source and are kept apart here.
Molecular target: T1, FAAH (Rattus norvegicus, UniProt P97612)
T1 construct: Preparation of Rat Brain Membranes Preparations (FAAH Enzyme Solution); from tissue; host or cells: rat cerebrum (brain membrane preparation)
T1 sequence (P97612 1-579): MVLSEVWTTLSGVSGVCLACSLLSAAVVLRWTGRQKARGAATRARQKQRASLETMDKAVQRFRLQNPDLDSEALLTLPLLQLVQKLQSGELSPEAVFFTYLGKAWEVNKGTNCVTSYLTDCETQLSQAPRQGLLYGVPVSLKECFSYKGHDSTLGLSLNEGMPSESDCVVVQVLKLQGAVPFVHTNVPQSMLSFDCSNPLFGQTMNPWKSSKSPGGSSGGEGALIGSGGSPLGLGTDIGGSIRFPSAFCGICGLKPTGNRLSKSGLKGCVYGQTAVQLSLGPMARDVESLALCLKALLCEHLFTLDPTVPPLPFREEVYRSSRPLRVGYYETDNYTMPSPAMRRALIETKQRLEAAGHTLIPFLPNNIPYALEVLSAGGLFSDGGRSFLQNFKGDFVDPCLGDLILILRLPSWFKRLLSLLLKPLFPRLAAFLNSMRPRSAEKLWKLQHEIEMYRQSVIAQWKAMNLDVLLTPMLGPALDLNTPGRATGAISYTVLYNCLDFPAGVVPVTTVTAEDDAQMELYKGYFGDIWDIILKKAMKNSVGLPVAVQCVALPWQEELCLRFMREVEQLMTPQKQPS
Test: Determination of FAAH inhibitory activity in rat (rat brain membrane preparations, [3H]-anandamide hydrolysis)
Type: biochemical
Conditions: for inhibition at 0.1 µM: read-out: FAAH Inhibition, Inhibition Rate at 100 nM; for IC50: test substance 0.1 nM to 1 μM, read-out: FAAH Inhibition IC50
Description: Determination of FAAH Inhibitory Activity in Rat
The preparation of rat brain membranes preparations and the determination of FAAH inhibitory activity were carried out according to the Jonsson et al. method [Br. J. Pharmacol., 133, 1263 (2001)].
(1) Preparation of Rat Brain Membranes Preparations (FAAH Enzyme Solution)
The cerebrum was extracted from rats and was freeze-stored at −80° C. To the frozen cerebrum was added 4° C. enzyme homogenization buffer (20 mM HEPES-buffer pH 7.0, 1 mM MgCl2) and the mixture was homogenized using a homogenizer in ice and the homogenates were centrifuged (36,000×g for 20 minutes). After repeating operations of homogenization and centrifugation, the tissue pellets were re-suspended with 4° C. enzyme homogenization buffer. The re-suspensions were incubated at 37° C. for 15 minutes and were centrifuged (36,000×g for 20 minutes), and the resulting tissue membranes were then re-suspended with enzyme solution preparation buffer (50 mM Tris-HCl buffer pH 7.4, 1 mM EDTA, 3 mM MgCl2). The protein concentration in the resulting membrane preparations were determined according to a colorimetry method (BCA Protein Assay: Pierce Inc.) and the preparations were freeze-stored at −80° C. until used for assay.
(2) Screening of Substances for Inhibiting FAAH Activity
To the above membrane preparations (final concentration 100 μg/mL) were added a solution of test substances in DMSO (final concentration in DMSO 1%) and an assay buffer (for final preparation; 22 mM Tris-HCl (pH 7.6), 1.4 mM EDTA, 1.5% BSA, 0.6 mM MgCl2) and the resulting mixtures were preincubated at 37° C. for 10 minutes. Thereto was added a substrate solution (for final preparation; 2 nM [^3H]-Anandamide (American Radiolabeled Chemicals Inc.)+2 μM Anandamide (Sigma-Aldrich Co.)) (final assay volume of 200 μL) and the resulting mixtures were incubated at 37° C. for 10 minutes. Here in control experiment, DMSO was added instead of the solution of test substance in DMSO. Also in blank experiment, DMSO was added instead of the solution of test substance in DMSO and an enzyme solution preparation buffer was also added instead of the membrane preparations. After the incubation, thereto was added a 400 μL ice-cooled solution of chloroform and methanol (1:1 ratio by volume) and the resulting mixtures were stirred. An ethanolamine (ethanolamine-1-[^3H]) as a decomposed product was separated into an upper layer (water/methanol layer) by centrifugation (1,000×g for 10 minutes). The upper layer 200 μL was transferred into 96 well Deepwell Luma Plate-96 (PerkinElmer Inc.) and the radioactivity was measured by microplate scintillation counter (TopCount NXT™: […].). The substances showing a lower measured value compared to those of control were selected as the compound having a FAAH inhibitory activity.
(3) Determination of IC50 Value
The test substances were prepared such that the final concentration of the compounds is within the range of 0.1 nM to 1 μM and were then examined on the effect on FAAH activity according to the above-mentioned protocol.

[1] = rat brain membrane preparations, 100 nM test substance
[2] = rat brain membrane preparations

Structure (SMILES) | inhibition at 0.1 µM [1] | IC50 [2] | inhibition at 0.1 µM
COc1cccc(-c2ncc3c(n2)n(C)c(=O)n3C(=O)N(C)C)c1 [Example 48, 2-(3-Methoxyphenyl)-N,N,9-trimethyl-8-oxo-8,9-dihydro-7H-purine-7-carboxamide] | 100% | 4 nM | 
Cn1c(=O)n(C(=O)N2CCN(c3ccc(C(F)(F)F)cn3)CC2)c2cnc(-c3ccccc3)nc21 [Example 50, 9-Methyl-2-phenyl-7-({4-[5-(trifluoromethyl)-pyridin-2-yl]piperazin-1-yl}carbonyl)-7,9-dihydro-8H-purine-8-one] | 98% | 9 nM | 
Cn1c(=O)n(C(=O)N2CCN(c3ncccn3)CC2)c2cnc(-c3ccccc3)nc21 [Example 51, 9-Methyl-2-phenyl-7-{[4-(pyrimidin-2-yl)piperazin-1-yl]carbonyl}-7,9-dihydro-8H-purine-8-one] | 97% | 25 nM | 
Cn1c(=O)n(C(=O)N2CCN(c3nccs3)CC2)c2cnc(-c3ccccc3)nc21 [Example 55, 9-Methyl-2-phenyl-7-{[4-(1,3-thiazol-2-yl)piperazin-1-yl]carbonyl}-7,9-dihydro-8H-purine-8-one] | 94% | 25 nM | 
Cc1ccc(N2CCN(C(=O)n3c(=O)n(C)c4nc(-c5ccccc5)ncc43)CC2)nc1 [Example 56, 9-Methyl-7-{[4-(5-methylpyridin-2-yl)piperazin-1-yl]carbonyl}-2-phenyl-7,9-dihydro-8H-purine-8-one] | 100% | 7 nM | 
COCCN(C)C(=O)n1c(=O)n(C)c2nc(-c3cccc(OC)c3)ncc21 [Example 59, N-(2-Methoxyethyl)-2-(3-methoxyphenyl)-N,9-dimethyl-8-oxo-8,9-dihydro-7H-purine-7-carboxamide] | 99% | 26 nM | 
CCN(C)C(=O)n1c(=O)n(C)c2nc(-c3cccc(OC)c3)ncc21 [Example 60, N-Ethyl-2-(3-methoxyphenyl)-N,9-dimethyl-8-oxo-8,9-dihydro-7H-purine-7-carboxamide] | 99% | 6 nM | 
COc1cccc(-c2ncc3c(n2)n(C)c(=O)n3C(=O)N(C)CCc2ccc(Cl)cc2)c1 [Example 69, N-[2-(4-Chlorophenyl)ethyl]-2-(3-methoxyphenyl)-N,9-dimethyl-8-oxo-8,9-dihydro-7H-purine-7-carboxamide] |  | 2 nM | 101%
CCN(CC)C(=O)n1c(=O)n(C)c2nc(-c3cccc(OC)c3)ncc21 [Example 70] | 41% | > 100 nM | 
COc1cccc(-c2ncc3c(n2)n(C)c(=O)n3C(=O)N(C)Cc2ccc(F)cc2)c1 [Example 71, N-(4-Fluorobenzyl)-2-(3-methoxyphenyl)-N,9-dimethyl-8-oxo-8,9-dihydro-7H-purine-7-carboxamide] | 103% | 9 nM | 
COc1cccc(-c2ncc3c(n2)n(C)c(=O)n3C(=O)N(C)Cc2cccc(F)c2)c1 [Example 72, N-(3-Fluorobenzyl)-2-(3-methoxyphenyl)-N,9-dimethyl-8-oxo-8,9-dihydro-7H-purine-7-carboxamide] | 99% | 23 nM | 
COc1cccc(CN(C)C(=O)n2c(=O)n(C)c3nc(-c4cccc(OC)c4)ncc32)c1 [Example 73, N-(3-Methoxybenzyl)-2-(3-methoxyphenyl)-N,9-dimethyl-8-oxo-8,9-dihydro-7H-purine-7-carboxamide] | 89% | 45 nM | 
COc1cccc(-c2ncc3c(n2)n(C)c(=O)n3C(=O)N(C)CCc2ccc(F)cc2)c1 [Example 74, N-[2-(4-Fluorophenyl)ethyl]-2-(3-methoxyphenyl)-N,9-dimethyl-8-oxo-8,9-dihydro-7H-purine-7-carboxamide] |  | < 1 nM | 104%

Continued, in another order:

inhibition at 0.1 µM [1] | IC50 [2] | Structure (SMILES) | inhibition at 0.1 µM
16% | > 100 nM | COc1cccc(-c2ncc3c(n2)n(C)c(=O)n3C(=O)N2CC[C@@H](OC)C2)c1 [Example 47] | 
99% | 6 nM | COc1cccc(-c2ncc3c(n2)n(C)c(=O)n3C(=O)N2CCCCC2)c1 [Example 49, 2-(3-Methoxyphenyl)-9-methyl-7-(piperidin-1-ylcarbonyl)-7,9-dihydro-8H-purine-8-one] | 
97% | 19 nM | Cc1cccc(N2CCN(C(=O)n3c(=O)n(C)c4nc(-c5ccccc5)ncc43)CC2)n1 [Example 53, 9-Methyl-7-{[4-(6-methylpyridin-2-yl)piperazin-1-yl]carbonyl}-2-phenyl-7,9-dihydro-8H-purine-8-one] | 
99% | 24 nM | COc1cccc(N2CCN(C(=O)n3c(=O)n(C)c4nc(-c5ccccc5)ncc43)CC2)n1 [Example 54, 7-{[4-(6-Methoxypyridin-2-yl)piperazine-1-yl]carbonyl}-9-methyl-2-phenyl-7,9-dihydro-8H-purine-8-one] | 
101% | 5 nM | COc1cccc(-c2ncc3c(n2)n(C)c(=O)n3C(=O)N2CCC2)c1 [Example 57, 7-(Azetidin-1-ylcarbonyl)-2-(3-methoxyphenyl)-9-methyl-7,9-dihydro-8H-purine-8-one] | 
76% | 62 nM | COc1cccc(-c2ncc3c(n2)n(C)c(=O)n3C(=O)N2CCOCC2)c1 [Example 58] | 
90% | 26 nM | COc1cccc(-c2ncc3c(n2)n(C)c(=O)n3C(=O)N2CC[C@@H](F)C2)c1 [Example 62, 7-{[(3R)-3-Fluoropyrrolidin-1-yl]carbonyl}-2-(3-methoxyphenyl)-9-methyl-7,9-dihydro-8H-purine-8-one] | 
100% | 17 nM | COc1cccc(-c2ncc3c(n2)n(C)c(=O)n3C(=O)N2CC[C@H](F)C2)c1 [Example 63, 7-{[(3S)-3-Fluoropyrrolidin-1-yl]carbonyl}-2-(3-methoxyphenyl)-9-methyl-7,9-dihydro-8H-purine-8-one] | 
98% | 3 nM | COc1cccc(-c2ncc3c(n2)n(C)c(=O)n3C(=O)N(C)CCOc2ccccc2)c1 [Example 65, 2-(3-Methoxyphenyl)-N,9-dimethyl-8-oxo-N-(2-phenoxyethyl)-8,9-dihydro-7H-purine-7-carboxamide] | 
93% | 46 nM | COc1cccc(-c2ncc3c(n2)n(C)c(=O)n3C(=O)N2CCC(Cc3ccccc3)CC2)c1 [Example 66, 7-[(4-Benzylpiperidin-1-yl)carbonyl]-2-(3-methoxyphenyl)-9-methyl-7,9-dihydro-8H-purine-8-one] | 
97% | 7 nM | COc1cccc(-c2ncc3c(n2)n(C)c(=O)n3C(=O)N2CCN(CCc3ccccc3)CC2)c1 [Example 67, 2-(3-Methoxyphenyl)-9-methyl-7-{[4-(2-phenylethyl-)piperazin-1-yl]carbonyl}-7,9-dihydro-8H-purine-8-one] | 
98% | 6 nM | COc1cccc(-c2ncc3c(n2)n(C)c(=O)n3C(=O)N2CCC(CCc3ccc(Cl)cc3)CC2)c1 [Example 68, 7-({4-[2-(4-Chlorophenyl)ethyl]piperidin-1-yl}carbonyl)-2-(3-methoxyphenyl)-9-methyl-7,9-dihydro-8H-purine-8-one] | 

— patent US8735406B2, “8-oxodihydropurine derivative” (Dainippon Sumitomo Pharma Co., Ltd., priority 2009, dated 2014)
